Here are results for four compounds from patent US7947275B2 (Signe Biopharma, Inc., priority 2000, dated 2011).

Assay [1] deals with progesterone receptors of MTW9/PL2 cells. Kind of assay: Estrogen induction of progesterone receptors in MTW9/PL2 cells. The class given is cell-based, rat. As to conditions: 1.0×10^−8 M E2, within two days; two experiments.
From the text: All results were normalized to “receptors per cell” to correct for growth over the duration of the experiment.
Another assay concerns LNCaP cells. Kind of assay: Cell growth assay, LNCaP human prostatic carcinoma cells. The class given is cell-based. Particulars: D-MEM/F-12 with CDE-horse serum, 10 nM steroid.
The test system of assay [2] is progesterone receptors of T47D cells. Kind of assay: Induction of progesterone receptors in T47D cells. As to conditions: four days, phenol red free medium. The class given is cell-based, human.
Assay [3] has as its target T1, CA-PS-Pool I (predominantly CBG) (Equus caballus, UniProt F7DRS2).
T1 sequence (F7DRS2 23-406): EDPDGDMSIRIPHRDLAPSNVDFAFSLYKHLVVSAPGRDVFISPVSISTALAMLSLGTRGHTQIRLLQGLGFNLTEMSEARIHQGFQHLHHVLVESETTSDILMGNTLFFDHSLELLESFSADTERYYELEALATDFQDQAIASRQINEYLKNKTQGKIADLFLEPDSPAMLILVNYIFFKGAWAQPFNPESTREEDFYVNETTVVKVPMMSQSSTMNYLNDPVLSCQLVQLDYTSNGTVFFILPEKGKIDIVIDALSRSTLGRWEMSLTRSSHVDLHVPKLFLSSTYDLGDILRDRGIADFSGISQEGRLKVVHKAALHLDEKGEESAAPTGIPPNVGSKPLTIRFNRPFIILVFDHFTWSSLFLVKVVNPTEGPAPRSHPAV
Kind of assay: Scatchard analysis of labeled steroid binding to CA-PS-pool I. The arrangement: species or system horse. Particulars: 3H-labeled steroid, 34° C.; for Kd: read-out: CA-PS-Pool I Kd.

A further assay concerns CA-PS-Pool II. Kind of assay: Scatchard analysis of labeled steroid binding to CA-PS-pool II. As to conditions: 3H-labeled steroid, 34° C. The arrangement: species or system horse.
The subject of assay [4] is CA-PS-Pool II from rat serum. Kind of assay: Scatchard analysis of labeled steroid binding to the SHBG-like pools from rat serum. Particulars: 3H-labeled steroid.
Assay [5] deals with MCF-7A, T47D and MTW9/PL2 cells. Kind of assay: Direct test of phenol red versus E2 as mitogen with three ER^+ cell lines. The class given is cell-based. As to conditions: phenol red free D-MEM/F-12 with 30% CDE-HS.
Method: Direct Test of Phenol Red Estrogenic Activity. Three cell lines were selected for a direct test of phenol red as a mitogen. […] This concentration was chosen even though it is not as inhibitory as 50% (v/v) serum. This selection was made to reduce possible interactions of the phenol red/contaminant with serum proteins while still retaining a significant inhibitory effect. Phenol red concentrations of up to 16 mg/L were added to this medium. This highest level was twice that in standard commercially formulated Gibco-BRL D-MEM/F-12. […] The preparations used in this study ranged in age from newly obtained to more than ten year old laboratory stocks.
For assay [6] the following is noted: read-out: Kd of ^3H-E2 specific binding.
For assay [7] the following is noted: read-out: Kd of ^3H-E2 specific binding. This is another data set of the same source.
The subject of a further assay is ERβ. Particulars: Transfection Studies, ERβ only; cited from earlier work.
The target of the next assay is human SHBG (Homo sapiens, UniProt P04278). Particulars: 37° C.; cited from earlier work.
Sequence of human SHBG (P04278 30-402): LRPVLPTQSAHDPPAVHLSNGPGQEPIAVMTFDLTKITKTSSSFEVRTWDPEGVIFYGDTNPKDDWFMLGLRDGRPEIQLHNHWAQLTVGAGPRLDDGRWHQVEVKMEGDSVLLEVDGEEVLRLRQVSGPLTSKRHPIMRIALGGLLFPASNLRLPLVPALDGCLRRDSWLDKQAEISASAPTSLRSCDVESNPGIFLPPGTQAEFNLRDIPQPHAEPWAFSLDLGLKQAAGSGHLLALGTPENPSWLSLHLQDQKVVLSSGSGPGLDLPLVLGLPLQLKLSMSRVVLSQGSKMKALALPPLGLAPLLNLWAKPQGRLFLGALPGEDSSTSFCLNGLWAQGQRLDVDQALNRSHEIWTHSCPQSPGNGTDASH
Assay [8] addresses estrogen receptor of H301 cells (Mesocricetus auratus, UniProt Q9QZJ5). As to conditions: cited from earlier work.
The subject of another assay is H301 cells. Kind of assay: Cell growth assay, H301 kidney tumor cells.
Another assay has as its system T47D cells. Kind of assay: Cell growth assay, T47D human breast cancer cells. As to conditions: for effect of estrogen in serum-free defined medium without inhibitor: serum-free DDM-2MF ± 10 nM E2.
A further assay relates to GH4C1 cells. Kind of assay: Cell growth assay, GH4C1 rat pituitary tumor cells.
The next assay deals with MCF-7K cells. Kind of assay: Cell growth assay, MCF-7K human breast cancer cells. As to conditions: serum-free DDM-2MF ± 10 nM E2, 12 days.
The subject of the next assay is ZR-75-1 cells. Kind of assay: Cell growth assay, ZR-75-1 human breast cancer cells. As to conditions: serum-free defined DDM-2MF.
For assay [9], the target named is T2, estrogen receptors of intact T47D cells (Homo sapiens, UniProt P03372).
T2 construct: endogenous in cells; host or cells: T47D human breast cancer cells
Kind of assay: Displacement of ^3H-E2 binding to intact T47D cells. As to conditions: 5 nM ^3H-E2, two hours at 37° C.; r9-r14: 2.5, 5.0, 50, 250, 500, 1000 nM Unlabeled E2; r15-r19: 1, 2, 4, 5, 16 mg/L Phenol Red.

A further assay concerns HT-29 cells. Kind of assay: Cell growth assay, HT-29 human colon cancer cells. The class given is cell-based. Particulars: CAPM with plasma IgM at 40 μg/mL, increasing concentrations of T3. The text has this:
General Cell Culture—Growth Assay Methods.
General Cell Culture—Harvest and Counting Cells.
General Cell Culture—Quantification of Growth.

Assay [10] relates to GH4C1, GH1 and GH3 rat pituitary tumor cell lines. Kind of assay: Thyroid hormone growth effects with GH cell lines in CDE-horse serum. The class given is cell-based. As to the method:
Thyroid Hormone Responsive Pituitary Tumor Cell Growth in CDE-Serum Prepared at 34° C. […] Nonetheless, the 34° C. […] It is known that the thyroid hormone receptor is a member of a superfamily of receptors that also includes the steroid hormone receptors (Evans R M (1988) Science (Wash D.C.) 240:889-895). Testing of substances expected to have thyroid hormone like activity can be performed with the GH cell lines in the presence of low concentrations of CDE-serum.

The next assay addresses human CBG (Homo sapiens, UniProt P08185). Particulars: 23° C.; cited from earlier work.
In assay [11] the test system is cortisol receptors of MTW9/PL2 cells. Kind of assay: ^3H-cortisol binding to MTW9/PL2 cells. As to conditions: ≦20 nM ^3H-cortisol.
The next assay deals with MTW9/PL2 cells. Kind of assay: Cell growth assay, MTW9/PL2 rat mammary tumor cells. Particulars: 50% (v/v) CDE-horse serum.

Where “and” joins values, the source holds several entries; their conditions need not be identical. Equal values may be shown once. Read-outs that look alike come from different tables or passages of the source.

Sequence of estrogen receptor of H301 cells (Q9QZJ5 whole entry): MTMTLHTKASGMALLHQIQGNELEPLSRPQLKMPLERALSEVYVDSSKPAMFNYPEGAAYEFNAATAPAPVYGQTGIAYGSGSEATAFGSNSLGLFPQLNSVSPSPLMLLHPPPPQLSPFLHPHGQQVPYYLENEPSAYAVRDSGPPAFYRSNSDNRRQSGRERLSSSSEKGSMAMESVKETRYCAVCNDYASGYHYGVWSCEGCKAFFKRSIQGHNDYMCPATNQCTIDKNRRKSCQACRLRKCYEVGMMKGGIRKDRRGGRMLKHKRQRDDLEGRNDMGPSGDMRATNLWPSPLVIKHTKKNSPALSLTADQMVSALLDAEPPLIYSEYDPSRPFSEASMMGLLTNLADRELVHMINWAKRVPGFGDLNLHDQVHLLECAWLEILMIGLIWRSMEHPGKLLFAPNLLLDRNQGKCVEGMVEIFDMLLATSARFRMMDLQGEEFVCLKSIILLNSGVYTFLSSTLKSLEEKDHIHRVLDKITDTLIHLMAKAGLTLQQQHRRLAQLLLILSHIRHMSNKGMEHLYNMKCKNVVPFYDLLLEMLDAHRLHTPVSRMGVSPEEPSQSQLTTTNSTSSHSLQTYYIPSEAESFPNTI
Sequence of human CBG (P08185 23-405): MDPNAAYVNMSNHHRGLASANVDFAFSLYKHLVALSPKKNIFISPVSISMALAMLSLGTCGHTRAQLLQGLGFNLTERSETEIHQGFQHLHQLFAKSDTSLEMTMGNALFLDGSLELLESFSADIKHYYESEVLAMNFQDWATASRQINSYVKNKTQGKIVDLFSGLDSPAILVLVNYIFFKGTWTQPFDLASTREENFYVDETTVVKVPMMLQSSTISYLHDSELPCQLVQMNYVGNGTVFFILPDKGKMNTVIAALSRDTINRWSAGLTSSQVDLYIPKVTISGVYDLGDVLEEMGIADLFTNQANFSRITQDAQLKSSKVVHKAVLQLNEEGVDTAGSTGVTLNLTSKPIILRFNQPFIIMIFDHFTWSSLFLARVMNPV
Method for LNCaP cells: Specific modifications of the customary cell growth assays were required for assays done under iron-restricted conditions. […] Serum-free components were added to “low-Fe” D-MEM/F-12 at double the concentrations needed (2X) or to “standard” D-MEM/F-12 at (2X) as the experiments dictated. Each assay dish received 1.0 mL of this solution. Next, the cells to be used in the assays were washed three times in either “low-Fe” medium or “standard” medium depending upon the experimental protocol.

Usually Kd stands for the concentration at which binding is half-saturated. For the compound `C[C@]12CC[C@@H]3c4ccc(O)cc4CC[C@H]3[C@@H]1CC[C@@H]2O` [E2, 17β-estradiol], in assay [1], the “increase in number of progesterone receptors per cell” value is 1.8 fold and 2.0 fold. In the assay on LNCaP cells, the “reversal of the inhibition caused by CDE-horse serum” value is reported as “reversed the CDE-serum caused inhibition completely”. In addition, in assay [2] (1.0×10^−8 M), the “increase in progesterone receptors” value is recorded as “four”. Further, the “increase in progesterone receptor content” value in assay [2] (1.0×10^−12 M) is “two”. The Kd in [3] was 10500 nM; in assay [4], 41 nM; in assay [6], 20 to 50 nM; in assay [7] it was 20 to 50 nM; in assay [8] (read-out: Kd for E2, CELL EXTRACTS), 0.87 nM; in assay [8] (read-out: Kd for E2, Table 5: lowest Kd) it was 0.87 nM. Moreover, the Kd in assay [8] (read-out: Kd for E2, WHOLE CELLS) is 1 nM. Also, the “CA-PS-Pool II Ka” value with CA-PS-Pool II came to 3.55e+07 M⁻¹; in assay [4], 2.4e+07 M⁻¹. The “growth responses to the natural hormone” value in [5] is 2 to 5 CPD. In the assay on ERβ, the “Kd for E2, CELL EXTRACTS” value is 0.05 to 0.1 × 10^−9 M. In addition, at human SHBG, the “Ka of purified human SHBG” value was 2.2e+08 M⁻¹. Moreover, the “effect of estrogen in serum-free defined medium without inhibitor” value is reported as “had no effect on H301 cell growth” in the assay on H301 cells (serum-free defined CAPM), 0.5 to 1.0 CPD with T47D cells and 1.0 CPD in the assay with T47D cells (listed as estrogen). Moreover, the entries for the “effect of E2 in serum-free defined medium without inhibitor” value in the assay with GH4C1 cells (serum-free PCM-9), in the assay on MCF-7K cells and in the assay with ZR-75-1 cells were “had no effect on growth rate or saturation density”, “had no effect on growth rate or saturation density” and “no effect”, respectively.

With `O=S1(=O)OC(c2ccc(O)cc2)(c2ccc(O)cc2)c2ccccc21` [Phenol Red], the “Percent of Control” value in [9] was 102% and 111% and 94% and 99% and 110%.

On to `N[C@@H](Cc1cc(I)c(Oc2ccc(O)c(I)c2)c(I)c1)C(=O)O` [T3, 3′, 5-Triiodothyronine], for which the “thyroid hormone reversal of the IgM inhibition” value in the assay with HT-29 cells is “restored growth”. In addition, the “growth effect, result in words” value in assay [10] (50% (v/v) CDE-horse serum) was “only supraphysiologic concentrations of thyroid hormone showed growth effects”; in [10] (D-MEM/F-12 with […] (v/v) CDE-horse serum), “caused substantial growth”.

In the case of `C[C@]12CCC(=O)C=C1CC[C@@H]1[C@@H]2[C@@H](O)C[C@@]2(C)[C@H]1CC[C@]2(O)C(=O)CO` [cortisol, Hydrocortisone/Cortisol], the “CA-PS-Pool I Ka” value in [3] and in assay [3] (listed as Cortisol) was 1.41e+09 M⁻¹ each time. The figures for the Kd (in assay [3]; at CA-PS-Pool II; in assay [4]) were 0.71 nM, 1890 nM and 5700 nM, respectively. Further, the “CA-PS-Pool II Ka” value is 530000 M⁻¹ with CA-PS-Pool II and 180000 M⁻¹ in assay [4]. Moreover, the “Ka for human CBG” value at human CBG was 5.2e+07 M⁻¹. The “specific saturable receptors for cortisol” value in [11] was “did not identify specific saturable receptors”. The “growth effect of steroid hormone, result in words” value was “inactive” with H301 cells (50% (v/v) CDE-horse serum); “completely ineffective” in the assay with T47D cells (50% (v/v) CDE horse serum, 14 days); “had no effect on GH4C1 growth” in the assay on GH4C1 cells (50% CDE-horse serum). In addition, the “concentration causing significant (p<0.05) growth” value with MTW9/PL2 cells is more than 10 µM.
